From patent publication US20200017495A1, “NOVEL HETEROCYCLIC COMPOUNDS AND THEIR USE IN PREVENTING OR TREATING BACTERIAL INFECTIONS” (priority 2017, published 2020)
Values joined by “and” are separate entries in the source; they are usually repeats but may differ in a detail not shown here. Equal values may be shown once. Read-outs that look alike come from different tables or passages of the source.

System: Klebsiella pneumoniae (KPN) isolates
Assay: MIC of compounds alone and combined with antibacterials, broth microdilution (CLSI)
Type: cell-based
How it was run: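 Log-phase isolates were inoculated at a final 5.10^5 CFU/mL in cation-adjusted Mueller-Hinton broth and incubated 16-20 h at 35° C in ambient air. MIC was the lowest concentration preventing visible growth; for combinations, the antibacterial MIC was read at each compound concentration.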

SMILES: CC1(C)S[C@@H]2[C@H](NC(=O)[C@H](N)c3ccc(O)cc3)C(=O)N2[C@H]1C(=O)O [AMX, Amoxicillin]
- MIC: >128 µg/mL
- MIC ATB in combination: >128 µg/mL and 128 µg/mL and <128 µg/mL
- MIC ATB in combination (KPN 6299, AF2 @ 8 μg/mL): 2 µg/mL
- MIC ATB in combination (KPN 6299, CLA @ 4 μg/mL): >512 µg/mL
- MIC ATB in combination (KPN 110376, AF2 @ 8 μg/mL): 0.5 µg/mL
- MIC ATB in combination (KPN 131119, CLA @ 4 μg/mL): >512 µg/mL
- MIC ATB in combination (KPN 160143, AF2 @ 8 μg/mL): <0.25 µg/mL
- MIC ATB in combination (KPN 190551, AF2 @ 8 μg/mL): <0.25 µg/mL
- MIC ATB in combination (KPN 200047, AF2 @ 8 μg/mL): <0.25 µg/mL
- MIC ATB in combination (KPN 200047, CLA @ 4 μg/mL): 32 µg/mL
- MIC ATB in combination (KPN 200327, AF2 @ 8 μg/mL): <0.25 µg/mL
- MIC ATB in combination (KPN 200327, CLA @ 4 μg/mL): 32 µg/mL
- MIC ATB in combination (KPN 260251, AF2 @ 8 μg/mL): 4 µg/mL
- MIC ATB in combination (KPN 260376, AF2 @ 8 μg/mL): <0.25 µg/mL
- MIC ATB in combination (KPN 270077, AF2 @ 8 μg/mL): 32 µg/mL
- MIC ATB in combination (KPN 270077, CLA @ 4 μg/mL): 32 µg/mL
- MIC ATB in combination (KPN 700603, AF2 @ 8 μg/mL): 4 µg/mL
- MIC ATB in combination (KPN 700603, CLA @ 4 μg/mL): 8 µg/mL
- MIC ATB in combination (KPN ARA, AF2 @ 8 μg/mL): <=0.25 μg/mL
- MIC ATB in combination (KPN BAA-1898, CLA @ 4 μg/mL): >512 µg/mL
- MIC ATB in combination (KPN LIB, AF2 @ 8 μg/mL): <=0.25 μg/mL
- MIC ATB in combination (KPN LIB, CLA @ 4 μg/mL): >512 µg/mL
- MIC ATB in combination (KPN UFR22_O, AF2 @ 8 μg/mL): 0.5 µg/mL
- MIC ATB in combination (KPN UFR23, AF2 @ 8 μg/mL): 4 µg/mL
- MIC ATB in combination (KPN UFR24, AF2 @ 8 μg/mL): 32 µg/mL
- MIC ATB in combination (KPN UFR25, AF2 @ 8 μg/mL): <0.25 µg/mL
- MIC ATB in combination (KPN UFR28, AF2 @ 8 μg/mL): <=0.25 μg/mL
- MIC ATB in combination (KPN UFR33, AF2 @ 8 μg/mL): 8 µg/mL
- MIC ATB in combination (KPN UFR43, AF2 @ 8 μg/mL): <0.25 µg/mL
- MIC ATB in combination (KPN UFR53, AF2 @ 8 μg/mL): <0.25 µg/mL
- MIC ATB in combination (KPN UFR77, AF2 @ 8 μg/mL): <0.25 µg/mL
- MIC ATB in combination (KPN UFR80, AF2 @ 8 μg/mL): 64 µg/mL
- MIC ATB in combination (KPN UFR218, CLA @ 4 μg/mL): 32 µg/mL
- MIC (strain KPN 6299, genotype TEM-1, SHV-11, OXA-163): >1024 µg/mL
- MIC (strain KPN 110376, genotype TEM-1, SHV-1, CTX-M-15, OXA-1, OXA-48): >256 µg/mL
- MIC (strain KPN 121206, genotype SHV-1, NDM-1): >256 µg/mL
- MIC (strain KPN 131119, genotype TEM-1, SHV-11, CTX-M-15, OXA-1, OXA-48): >256 µg/mL
- MIC (strain KPN 140347, genotype CTX-M-15, NDM-1, antibiotic alone): >128 µg/mL
- MIC (strain KPN 140513, genotype TEM-1, SHV-11, CTX-M-15, KPC-3): >256 µg/mL
- MIC (strain KPN 160143, genotype TEM-1, SHV-1, CTX-M-15, KPC-2, OXA-1): >256 µg/mL
- MIC (strain KPN 190128, genotype TEM-1, SHV-32, CTX-M-15, OXA-1): >256 µg/mL
- MIC (strain KPN 190270, genotype TEM-1, SHV-76, CTX-M-15, OXA-1): >256 µg/mL
- MIC (strain KPN 190425, genotype TEM-1, SHV-1, CTX-M-15, OXA-1): >256 µg/mL
- MIC (strain KPN 190551, genotype TEM-1, SHV-1, CTX-M-15, OXA-1): >256 µg/mL
- MIC (strain KPN 200047, genotype TEM-1, SHV-32, CTX-M-15, OXA-1): >256 µg/mL
- MIC (strain KPN 200327, genotype TEM-1, SHV-1, CTX-M-15, OXA-1): >256 µg/mL
- MIC (strain KPN 260251, genotype TEM-1, SHV-11, SHV-12, CTX-M-15, KPC-2): >256 µg/mL
- MIC (strain KPN 260252, genotype TEM-1, SHV-11, KPC-3): >256 µg/mL
- MIC (strain KPN 260376, genotype SHV-1, SHV-49, OXA-1): >256 µg/mL
- MIC (strain KPN 270077, genotype TEM-1, SHV-1, CTX-M-15): >256 µg/mL
- MIC (strain KPN 700603, genotype SHV-18, OXA-2): >256 µg/mL
- MIC (strain KPN ARA, genotype TEM-1, SHV-11, CTX-M-15, OXA-1, OXA-48): >256 µg/mL
- MIC (strain KPN BAA-1898, genotype TEM-1, SHV-11, SHV-12, KPC-2): >1024 µg/mL
- MIC (strain KPN LIB, genotype SHV-11, OXA-48): >256 µg/mL
- MIC (strain KPN UFR22_O, genotype TEM-1, SHV-1, OXA-48): >256 µg/mL
- MIC (strain KPN UFR23, genotype TEM-1, SHV-1, OXA-48): >256 µg/mL
- MIC (strain KPN UFR24, genotype TEM-1, SHV-2, SHV-11, OXA-1, OXA-48, OXA-47): >256 µg/mL
- MIC (strain KPN UFR25, genotype TEM-1, SHV-11, CTX-M-15, OXA-162): >256 µg/mL
- MIC (strain KPN UFR27, genotype TEM-1, SHV-28, CTX-M-15, OXA-204): >256 µg/mL
- MIC (strain KPN UFR28, genotype TEM-1, SHV-1, CTX-M-15, OXA-1, OXA-232): >256 µg/mL
- MIC (strain KPN UFR33, genotype TEM-2, SHV-12, CTX-M-15, OXA-1, OXA-10): >256 µg/mL
- MIC (strain KPN UFR42, genotype SHV-2, CTX-M-15 OXA-1, OXA-181, NDM-1): >256 µg/mL
- MIC (strain KPN UFR43, genotype SHV-11, CTX-M-15, CMY-2, OXA-1, NDM-1): >256 µg/mL
- MIC (strain KPN UFR46, genotype TEM-1, SHV-12, CTX-M-15, OXA-9, VIM-1): >256 µg/mL
- MIC (strain KPN UFR53, genotype TEM-1, IMP-1): >256 µg/mL
- MIC (strain KPN UFR65, genotype TEM-1, SHV-11, KPC-2): >256 µg/mL
- MIC (strain KPN UFR66, genotype TEM-1, SHV-11, CTX-M-15, KPC-2): >256 µg/mL
- MIC (strain KPN UFR67, genotype TEM-1, SHV-11, KPC-3): >256 µg/mL
- MIC (strain KPN UFR68, genotype TEM-1, SHV-11, CTX-M-15, KPC-3): >1024 µg/mL
- MIC (strain KPN UFR76, genotype TEM-155, SHV-11, ACT-1, OXA-2): >256 µg/mL
- MIC (strain KPN UFR77, genotype CMY-2): >256 µg/mL
